The numbers were not newly measured in patent US20220354784A1, “STABLE LATANOPROST COMPOUND OPHTHALMIC COMPOSITIONS” (Somerset Therapeutics LLC, priority 2021, published 2022), which cites them from elsewhere.

For this data set the following is noted: patients starting on monotherapy.

Regarding `CCNC(=O)CCC/C=C\C[C@@H]1[C@@H](/C=C/[C@@H](O)CCc2ccccc2)[C@H](O)C[C@@H]1O` [bimatoprost], the “rate of adjunctive medication use” value is 23.2%.
Consider `CC(C)OC(=O)CCC/C=C\C[C@@H]1[C@@H](/C=C/[C@@H](O)COc2cccc(C(F)(F)F)c2)[C@H](O)C[C@@H]1O` [travoprost], for which the “rate of adjunctive medication use” value is on record as 22.5%.
Regarding `CC(C)OC(=O)CCC/C=C\C[C@@H]1[C@@H](CC[C@@H](O)CCc2ccccc2)[C@H](O)C[C@@H]1O` [latanoprost, isopropyl (Z)-7[(1R,2R,3R,5S)3,5-dihydroxy-2-[(3R)-3-hydroxy-5-phenylpentyl]cyclopentyl]-5-heptanoate], the “rate of adjunctive medication use” value is on record as 30.2%.
